Series [1] is described as follows: Cytotoxicity against human SH-SY5Y cells assessed as reduction in cell viability incubated for 48 hrs by MTT assay. It is filed as toxicity, cell-based.
Series [2] is described as follows: Cytotoxicity against HEK293 cells assessed as reduction in cell viability incubated for 48 hrs by MTT assay. It is filed as toxicity, cell-based. The note with it: human. For orientation: Tetrazolium assays rely on reduction of a dye to a coloured formazan, in cell work by metabolically active cells.
The nature of series [3]: Cytotoxicity against human L02 cells assessed as reduction in cell viability incubated for 48 hrs by MTT assay. It is filed as toxicity, cell-based.
Series [4] deals with SH-SY5Y. The series can be described thus: Neuroprotective activity against MPP+-induced human SH-SY5Y cells assessed as reduction in cell death at 0.08 to 5 uM measured after 48 hrs by MTT assay relative to control. The class given is functional. Details: scale not given: the % may be the effect or the level left. The note with it: dose 0.08-5 µM.
The test system of series [5] is SH-SY5Y. The series is described as follows: Neuroprotective activity against MPP+-induced human SH-SY5Y cells assessed as reduction in cell death at 5 uM measured after 48 hrs by MTT assay relative to control. Details: scale not given: the % may be the effect or the level left. It is filed as functional.

A word on the IC50: it is the concentration that inhibits the measured activity by half. Turning to `Cc1ccc(C(=O)Nc2ccc(CN3CCN(C)CC3)c(C(F)(F)F)c2)cc1Nc1cccc2c1C(=O)C(=O)N2C`, the values for the IC50 at 48 h in series [1], in series [2] and in series [3] were 23.6 µM, 16.6 µM and > 80 µM, respectively.
For `Cc1ccc(C(=O)Nc2cc(-c3cnn(C)c3)cc(C(F)(F)F)c2)cc1Nc1cccc2c1C(=O)C(=O)N2C`, in that order: > 80 µM, > 80 µM and > 80 µM.
`Cc1cn(-c2cc(NC(=O)c3ccc(C)c(Nc4nccc(-c5cccnc5)n4)c3)cc(C(F)(F)F)c2)cn1` [NILOTINIB]: the results for the 50% inhibitory concentration (IC50) at 48 h in series [2] and in series [3] were 8.2 µM and 37 µM, respectively. The Activity was found to be 6.9% in series [4] and 20% in series [5].

The values above are taken from ChEMBL document CHEMBL5329216, “Discovery of conformationally constrained c-Abl inhibitors with potential neuroprotective effects against Parkinson's disease” (Bioorg Med Chem, 2023).
